We go through nine compounds from patent US20140221490A1, “METHODS OF TREATING PAIN” (Hospira, Inc., priority 2011, published 2014).

Data set [1] can be described thus: Study 2: pharmacokinetics of HPβCD-diclofenac and excipient HPβCD in subjects with renal or hepatic impairment and healthy subjects (crossover vs itraconazole). The settings on record: for AUC(0 − t) / AUC∞ / CL / Vz / t½ / λz: mean ± SD; for Tmax: median; for maximum HPβCD plasma concentration: after administration of Dyloject. Type of data set: in vivo, human. How it is done:
Subjects with mild chronic hepatic impairment, as defined by Child-Pugh Classification A, Score of 5 to 6 and a bilirubin of ≦2.5 mg/dl, were recruited. Subjects with renal or hepatic impairment were included if they were between 18-75 years of age, and healthy subjects between 18 and 65 years of age.
Inclusion criteria for healthy subjects were similar to those for Study 1. Healthy subjects were required to have normal renal function, defined as CrCl>80 mL/min, and normal hepatic function. […]
Similar to Study 1, there were allowances for a greater breadth of co-morbid conditions in the renal and hepatic groups. […] Diabetic patients must have been on a stable therapeutic regimen for four weeks.
Exclusion criteria included pregnancy, uncontrolled or poorly controlled diabetes, use of dialysis, fluctuating or rapidly deteriorating hepatic function, hepatic or other cancers, organ transplantation or immunosuppression, acute infections, or asthma. Subjects were excluded for any serious cardiovascular events, such as myocardial infarction, coronary artery bypass surgery or percutaneous coronary intervention, unstable angina, stroke or congestive heart failure. Restrictions were also placed on certain disease states, such as current intestinal disorders or infections, peptic ulcers, GI bleeding or cerebral hemorrhage. Subjects who were positive for hepatitis B or hepatitis C were excluded from the healthy and renal groups, but were included in the subjects with mild chronic hepatic impairment. […] Hypersensitivity to NSAIDs or diclofenac also prompted exclusion.
Subjects with renal or hepatic impairment reported to the study site on study day 0 and remained at the site for two nights and two days. […] Subjects were discharged on study day 2 after being assessed by the investigator, and returned 7±3 days after dosing for final safety assessments. If there were no abnormal findings at discharge, the follow-up visit was completed via telephone.
Healthy subjects reported to the study site on study day 0 and remained at the site for three nights and three days. […] Blood samples were obtained as described above for renal and hepatic subjects. […] For itraconazole, one blood sample was to be drawn at each time point to assay for HPβCD concentrations. Subjects were discharged on study day 3 after being assessed by the investigator, and returned 7±3 days after receiving the last dose of study drug for safety assessments.
The LOQ for the HPβCD assay was 100 ng/ml.
Pharmacokinetic parameters were calculated using non-compartmental analysis. Only those plasma concentrations equal to or greater than the lower limit of quantitation were used in the analysis. Actual sampling times were used in all pharmacokinetic analyses.
The maximum serum concentration (Cmax) and time to Cmax (Tmax) were taken directly from the data. The elimination rate constant, λz, was calculated as the negative of the slope of the terminal log-linear segment of the serum concentration-time curve. The range of data used for each subject and treatment was determined by visual inspection of a semi-logarithmic plot of concentration vs. time. Elimination half-life (t½) was calculated according to the following equation;
where Ctf is the final concentration≧: LOQ. Total plasma clearance (CL) was calculated as Dose/AUC, and volume of distribution (Vz) was calculated as Dose/λz AUC.
Comparisons among the three subject types were done using […]. The same model was used to test for the effect of hepatic impairment on the pharmacokinetics of diclofenac and HPβCD but without additional comparisons, as there were only two groups.

For data set [2] the following is noted: cited from earlier work; for K1:1, stability constant of 1:1 inclusion complex with HPβCD: literature reference; for Prot. bind., drug fraction bound to protein (fP): plasma; for Cmax: read-out: Cmax, maximum drug concentration in plasma, based on the drug's pharmacokinetics and administration of a normal drug dose.
Where [3] appears, read: Study 2, Healthy matches (to hepatic group), 37.5 mg HPβCD-diclofenac IV, plasma HPβCD.
Setting [4] is: Study 2, Healthy matches (to renal groups), 37.5 mg HPβCD-diclofenac IV, plasma HPβCD.
Setting [5] is: Study 2, Healthy, plasma HPβCD after 37.5 mg HPβCD-diclofenac IV.
[6] abbreviates: Study 2, Healthy, plasma HPβCD after 200 mg itraconazole IV.
Where [7] appears, read: Study 2, Mild Hepatic, 37.5 mg HPβCD-diclofenac IV, plasma HPβCD.
Setting [8] is: Study 2, Mild Renal, 37.5 mg HPβCD-diclofenac IV, plasma HPβCD.
The mark [9] stands for this setting: Study 2, Moderate renal, 37.5 mg HPβCD-diclofenac IV, plasma HPβCD.
Setting [10] is: moderate renal insufficiency compared to healthy subjects.
Where [11] appears, read: subjects with moderate renal insufficiency, 37.5 mg dose of HPβCD-diclofenac.

Like-named read-outs stand apart in the source and are kept apart here.

Turning to `CC(O)COC[C@H]1O[C@@H]2O[C@H]3[C@H](O)[C@@H](O)[C@@H](O[C@H]4[C@H](O)[C@@H](O)[C@@H](O[C@H]5[C@H](O)[C@@H](O)[C@@H](O[C@H]6[C@H](O)[C@@H](O)[C@@H](O[C@H]7[C@H](O)[C@@H](O)[C@@H](O[C@H]8[C@H](O)[C@@H](O)[C@@H](O[C@H]1[C@H](O)[C@H]2O)O[C@@H]8COCC(C)O)O[C@@H]7COCC(C)O)O[C@@H]6COCC(C)O)O[C@@H]5COCC(C)O)O[C@@H]4COCC(C)O)O[C@@H]3COCC(C)O` (stereo partly drawn) [HPβCD, hydroxypropyl-beta-cyclodextrin], in data set [1] (37.5 mg IV), the “PK in subjects with mild hepatic impairment versus matched healthy controls” value was “no differences”. The “exposure to HPβCD, geometric least squares mean ratio of AUC∞, relative to 8000 mg as Sporanox” value in data set [1] (333.3 mg HPβCD as HPβCD-diclofenac, healthy subjects) is recorded as 4.58%. Besides, in data set [1] (setting [3]), the “AUC(0 − t)” value was 52,982 ± 11,267 h × ng/mL, the “AUC∞” value is given as 53,651 ± 11,321 h × ng/mL, the CL is reported as 107 ± 21.2 mL/min and the Vz came to 20.6 ± 2.45 L. In addition, in data set [1] (setting [3]), the t½ amounted to 2.28 ± 0.42 h, the λz was found to be 0.3127 ± 0.052 h⁻¹ and the time to peak (Tmax) was determined as 0.083 h. In data set [1] (setting [4]), the “AUC(0 − t)” value was 66,449 ± 12,642 h × ng/mL, the “AUC∞” value is recorded as 67,316 ± 12,615 h × ng/mL, the CL is listed as 85.2 ± 16.5 mL/min and the Vz is reported as 23.3 ± 9.84 L. In addition, in data set [1] (setting [4]), the t½ is on record as 3.29 ± 1.66 h, the λz was 0.2510 ± 0.095 h⁻¹ and the Tmax came out at 0.083 h. In addition, in data set [1] (setting [5]), the “AUC(0 − t)” value was 58,994 ± 14,123 h × ng/mL, the “AUC∞” value is on record as 59,709 ± 14,217 h × ng/mL, the CL came to 98.0 ± 22.7 mL/min and the Vz stood at 21.8 ± 7.36 L. In data set [1] (setting [5]), the t½ is 2.74 ± 1.35 h, the λz came out at 0.2909 ± 0.0860 h⁻¹ and the time of peak concentration (Tmax) is 0.083 h. Moreover, in data set [1] (setting [6]), the CL turned out to be 106 ± 19.0 mL/min, the Vz turned out to be 23.5 ± 5.65 L, the t½ was determined as 2.54 ± 0.25 h and the λz worked out at 0.2752 ± 0.0244 h⁻¹. For the same compound, the Tmax in data set [1] (setting [6]) turned out to be 1.083 h. In data set [1] (setting [7]), the “AUC(0 − t)” value was 55,946 ± 17,233 h × ng/mL, the “AUC∞” value is 56,802 ± 17,412 h × ng/mL, the CL was 107 ± 33.8 mL/min and the Vz turned out to be 20.0 ± 4.19 L. Besides, in data set [1] (setting [7]), the t½ turned out to be 2.28 ± 0.60 h, the λz came out at 0.3226 ± 0.084 h⁻¹ and the time of peak concentration (Tmax) is 0.083 h. Moreover, in data set [1] (setting [8]), the “AUC(0 − t)” value is on record as 127,141 ± 90,489 h × ng/mL, the “AUC∞” value is 128,349 ± 91,132 h × ng/mL, the CL turned out to be 59.0 ± 31.3 mL/min and the Vz was found to be 13.6 ± 5.38 L. In data set [1] (setting [8]), the t½ stood at 2.87 ± 0.69 h, the λz was determined as 0.2549 ± 0.068 h⁻¹ and the Tmax is recorded as 0.083 h. In addition, in data set [1] (setting [9]), the “AUC(0 − t)” value is 169,042 ± 52,722 h × ng/mL, the “AUC∞” value is 165,728 ± 60,386 h × ng/mL, the CL turned out to be 36.2 ± 10.0 mL/min and the Vz was 17.7 ± 1.88 L. In addition, in data set [1] (setting [9]), the t½ was 6.04 ± 1.94 h, the λz is 0.1226 ± 0.033 h⁻¹ and the Tmax stood at 0.083 h. Besides, the “exposure to HPβCD relative to that of itraconazole” value in data set [1] (after a single dose) is on record as 1/20. For the same compound, the “maximum HPβCD plasma concentration” value in data set [1] (normal healthy subjects) was found to be 70 µg/mL. Moreover, the “maximum HPβCD plasma concentration” value in data set [1] (subjects with moderate renal impairment) worked out at 106 µg/mL. Further, the “exposure to HPβCD relative to that of itraconazole” value in data set [1] (after steady state) is “⅛”. In data set [1] (setting [10]), the “decrease in CL of HPβCD” value came out at 2.4 fold and the “increase in t½ of HPβCD” value came to 1.8 fold. Also, in data set [1] (setting [11]), the “exposure to HPβCD lower than in healthy subjects administered itraconazole, based on AUC(0-T)” value worked out at 7.9 fold and the “exposure to HPβCD lower than in healthy subjects administered itraconazole, based on average concentration at steady state (Cav)” value is on record as 3.9 fold.

`COc1ccnc(C[S+]([O-])c2nc3ccc(OC(F)F)cc3[nH]2)c1OC` (centres unmarked) [Pantoprazole]: in data set [2], the “Vd, volume of distribution” value is 0.15 L/kg; the “K1:1, stability constant of 1:1 inclusion complex with HPβCD” value (shortened to “K1:1, stability constant”) is 420^41 M^−1; the “Prot. bind., drug fraction bound to protein (fP)” value (“Prot. bind., drug fraction bound” below) is 98%; the Cmax was 6500 nM.

On to `C[C@]12C=CC(=O)C=C1CC[C@@H]1[C@@H]2[C@@H](O)C[C@@]2(C)[C@H]1CC[C@]2(O)C(=O)CO` [Prednisolone], for which, in data set [2], the “Vd, volume of distribution” value is 1.5 L/kg; the “K1:1, stability constant” value is recorded as 2,400^42 M^−1; the “Prot. bind., drug fraction bound” value is reported as 90%; the Cmax was 1300 nM.

Turning to `CC(C)c1cccc(C(C)C)c1O` [Propofol], the “Prot. bind., drug fraction bound” value in data set [2] was 99%.

For `CN[C@H]1CC[C@@H](c2ccc(Cl)c(Cl)c2)c2ccccc21` [Sertaline], the “Prot. bind., drug fraction bound” value in data set [2] is 98%.

With `CCCc1nn(C)c2c(=O)[nH]c(-c3cc(S(=O)(=O)N4CCN(C)CC4)ccc3OCC)nc12` [Sildenafil], in data set [2], the “Vd, volume of distribution” value was 1.5 L/kg; the “Prot. bind., drug fraction bound” value is recorded as 96%; the Cmax is 930 nM.

Turning to `CN1CC(=O)N2[C@H](c3ccc4c(c3)OCO4)c3[nH]c4ccccc4c3C[C@@H]2C1=O` [Tadalafil], in data set [2], the “Vd, volume of distribution” value was 0.9 L/kg; the “K1:1, stability constant” value is 360^46 M^−1; the “Prot. bind., drug fraction bound” value is reported as 94%; the Cmax was 1300 nM.

As for `CCCc1nc2c(C)cc(-c3nc4ccccc4n3C)cc2n1Cc1ccc(-c2ccccc2C(=O)O)cc1` [Telmisartan], in data set [2], the “Vd, volume of distribution” value is 7 L/kg; the “K1:1, stability constant” value was 40,000^47 M^−1; the “Prot. bind., drug fraction bound” value is recorded as 99%; the Cmax is 2800 nM. Further, the “K1:1, stability constant” value in data set [2] (listed as telmisartan) is 40,000 M^−1.

Consider `C[C@]12CC[C@H]3[C@@H](CCC4=CC(=O)CC[C@@]43C)[C@@H]1CC[C@@H]2O` [Testosterone], for which the “Prot. bind., drug fraction bound” value in data set [2] is given as 98%.

One may read the t½ as the time needed for the level to fall by half in the phase considered. Low values mean rapid decline, high ones slow decline. One may read the Tmax as the time from dosing to the highest level.
